Type in all cases: cell-based
The subject of test [1] is Haemophilus influenzae 1218. Briefly: MIC, microtiter broth dilution (NCCLS M100-S14), H. influenzae 1218 (susceptible). In a few lines: (§1)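 Microtiter broth dilution; interpretation per NCCLS M100-S14; endpoint = MIC. Stock: 40 mg/ml in DMSO.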
A general note: Dilution methods test growth across graded concentrations, often in twofold steps.

For test [2], the system named is Streptococcus pneumoniae 1175. The settings on record: microtiter broth dilution. In outline: as §1
Test [3] relates to Streptococcus pneumoniae 1095. The settings on record: microtiter broth dilution. In outline: as §1
Test [4] has as its system Streptococcus pneumoniae 1016. Put plainly: MIC, microtiter broth dilution (NCCLS M100-S14), S. pneumoniae 1016 (susceptible). In a few lines: as §1
The subject of test [5] is Streptococcus pyogenes 1079. Put plainly: MIC, microtiter broth dilution (NCCLS M100-S14), S. pyogenes 1079 (ermB). In a few lines:
as §1

SMILES strings stand for the structures. ≈ marks a conversion by molar mass, not a printed value. Like-named read-outs stand apart in the source and are kept apart here.

On to `CCC1OC(=O)C(C)C(=O)C(C)C(OC2OC(C)CC(N(C)C)C2O)C(C)(OC)CC(C)C(=O)C(C)C2N(C3CN(Cc4c(C)cnc5ccccc45)C3)C(=O)OC12C` (stereo not shown) [Example 1.98, 3-descladinosyl-11,12-dideoxy-6-O-methyl-3-oxo-12,11-(oxycarbonyl-(1-(3-methylquinoline-4-methyl)-azetidin-3-yl)-imino)-erythromycin A], for which, in test [1] (Haemophilus influenzae 1218), the “MIC H. influenzae 1218” value turned out to be 2 µg/mL (≈ 2.43 µM). Further, the “MIC S. pneumo. 1175” value in test [2] (Streptococcus pneumoniae 1175) is less than 0.063 µg/mL. The “MIC S. pneumo. 1095” value in test [3] (Streptococcus pneumoniae 1095) is less than 0.063 µg/mL. Further, the “MIC S. pneumo. 1016” value in test [4] (Streptococcus pneumoniae 1016) was less than 0.063 µg/mL. Further, the “MIC S. pyogenes 1079” value in test [5] (Streptococcus pyogenes 1079) was 0.25 µg/mL (≈ 0.304 µM).

With `CCC1OC(=O)C(C)C(=O)C(C)C(OC2OC(C)CC(N(C)C)C2O)C(C)(OC)CC(C)C(=O)C(C)C2N(C3CN(S(=O)(=O)c4ccc(C)c5ncccc45)C3)C(=O)OC12C` (stereo not shown) [Example 3.111, 3-descladinosyl-11,12-dideoxy-6-O-methyl-3-oxo-12,11-(oxycarbonyl-(1-(8-methylquinoline-5-sulfonyl)-azetidin-3-yl)-imino)erythromycin A], the “MIC H. influenzae 1218” value in test [1] (Haemophilus influenzae 1218) worked out at 0.5 µg/mL (≈ 0.573 µM). Moreover, the “MIC S. pneumo. 1175” value in test [2] (Streptococcus pneumoniae 1175) is less than 0.063 µg/mL. Besides, the “MIC S. pneumo. 1095” value in test [3] (Streptococcus pneumoniae 1095) is less than 0.063 µg/mL. Also, in test [4] (Streptococcus pneumoniae 1016), the “MIC S. pneumo. 1016” value is less than 0.063 µg/mL. For the same molecule, the “MIC S. pyogenes 1079” value in test [5] (Streptococcus pyogenes 1079) was 1 µg/mL (≈ 1.15 µM).

Regarding `CCC1OC(=O)C(C)C(=O)C(C)C(OC2OC(C)CC(N(C)C)C2O)C(C)(OC)CC(C)C(=O)C(C)C2N(C3CN(S(=O)(=O)c4ccccc4F)C3)C(=O)OC12C` (stereo not shown) [Example 3.07, 2-fluorobenzenesulfonyl], in test [1] (Haemophilus influenzae 1218), the “MIC H. influenzae 1218” value is 0.5 µg/mL (≈ 0.605 µM). Further, the “MIC S. pneumo. 1175” value in test [2] (Streptococcus pneumoniae 1175) is less than 0.06 µg/mL. Moreover, the “MIC S. pneumo. 1095” value in test [3] (Streptococcus pneumoniae 1095) was less than 0.06 µg/mL. Also, the “MIC S. pneumo. 1016” value in test [4] (Streptococcus pneumoniae 1016) was less than 0.06 µg/mL. For the same molecule, in test [5] (Streptococcus pyogenes 1079), the “MIC S. pyogenes 1079” value worked out at 16 µg/mL (≈ 19.4 µM).

With `CCC1OC(=O)C(C)C(=O)C(C)C(OC2OC(C)CC(N(C)C)C2O)C(C)(OC)CC(C)C(=O)C(C)C2N(C3CN(S(=O)(=O)c4ccc5c(cnn5C)c4)C3)C(=O)OC12C` (stereo not shown) [Example 3.94, 3-descladinosyl-11,12-dideoxy-6-O-methyl-3-oxo-12,11-(oxycarbonyl-(1-(1-methyl-1H-indazole-5-sulfonyl)-azetidin-3-yl)-imino)erythromycin A], in test [1] (Haemophilus influenzae 1218), the “MIC H. influenzae 1218” value amounted to 0.25 µg/mL (≈ 0.29 µM). Besides, the “MIC S. pneumo. 1175” value in test [2] (Streptococcus pneumoniae 1175) is less than 0.06 µg/mL. For the same molecule, the “MIC S. pneumo. 1095” value in test [3] (Streptococcus pneumoniae 1095) is 0.12 µg/mL (≈ 0.139 µM). Moreover, the “MIC S. pneumo. 1016” value in test [4] (Streptococcus pneumoniae 1016) was less than 0.06 µg/mL. For the same molecule, the “MIC S. pyogenes 1079” value in test [5] (Streptococcus pyogenes 1079) was determined as 0.25 µg/mL (≈ 0.29 µM).

With `CCC1OC(=O)C(C)C(=O)C(C)C(OC2OC(C)CC(N(C)C)C2O)C(C)(OC)CC(C)C(=O)C(C)C2N(C3CN(S(=O)(=O)c4ccc5ccccc5c4)C3)C(=O)OC12C` (stereo not shown) [Example 3.91, 3-descladinosyl-11,12-dideoxy-4-O-methyl-3-oxo-12,11-(oxycarbonyl-(1-(naphthalene-2-sulfonyl)-azetidin-3-yl)-imino)-erythromycin A], the “MIC H. influenzae 1218” value in test [1] (Haemophilus influenzae 1218) was determined as 0.12 µg/mL (≈ 0.14 µM). Besides, the “MIC S. pneumo. 1175” value in test [2] (Streptococcus pneumoniae 1175) was less than 0.06 µg/mL. Further, the “MIC S. pneumo. 1095” value in test [3] (Streptococcus pneumoniae 1095) was less than 0.06 µg/mL. Besides, the “MIC S. pneumo. 1016” value in test [4] (Streptococcus pneumoniae 1016) was less than 0.06 µg/mL. Besides, the “MIC S. pyogenes 1079” value in test [5] (Streptococcus pyogenes 1079) amounted to 4 µg/mL (≈ 4.66 µM).

For `CC[C@H]1OC(=O)[C@H](C)C(=O)[C@H](C)[C@@H](O[C@@H]2O[C@H](C)C[C@H](N(C)C)[C@H]2O)[C@](C)(OC)C[C@@H](C)C(=O)[C@H](C)[C@H]2N(C3CN(Cc4c(Br)cnc5nccnc45)C3)C(=O)O[C@]12C` [Example 1.74, 3-descladinosyl-11,12-dideoxy-6-O-methyl-3-oxo-12,11-(oxycarbonyl-(1-(7-bromopyrido[3,2-b]pyrazine-8-methyl)-azetidin-3-yl)imino)-erythromycin A], the “MIC H. influenzae 1218” value in test [1] (Haemophilus influenzae 1218) came to 1 µg/mL (≈ 1.12 µM). The “MIC S. pneumo. 1175” value in test [2] (Streptococcus pneumoniae 1175) is less than 0.063 µg/mL. For the same molecule, in test [3] (Streptococcus pneumoniae 1095), the “MIC S. pneumo. 1095” value is less than 0.063 µg/mL. For the same molecule, the “MIC S. pneumo. 1016” value in test [4] (Streptococcus pneumoniae 1016) is less than 0.063 µg/mL. Also, the “MIC S. pyogenes 1079” value in test [5] (Streptococcus pyogenes 1079) was found to be 0.5 µg/mL (≈ 0.562 µM).

For the molecule `CCC1OC(=O)C(C)C(=O)C(C)C(OC2OC(C)CC(N(C)C)C2O)C(C)(OC)CC(C)C(=O)C(C)C2N(C3CN(Cc4cccc5ncccc45)C3)C(=O)OC12C` (stereo not shown) [Example 1.06, 3-descladinosyl-11,12-dideoxy-6-O-methyl-3-oxo-12,11-(oxycarbonyl-(1-((quinolin-5-yl)-methyl)-azetidin-3-yl)-imino)-erythromycin A], the “MIC H. influenzae 1218” value in test [1] (Haemophilus influenzae 1218) was determined as 1 µg/mL (≈ 1.24 µM). Besides, the “MIC S. pneumo. 1175” value in test [2] (Streptococcus pneumoniae 1175) is less than 0.06 µg/mL. The “MIC S. pneumo. 1095” value in test [3] (Streptococcus pneumoniae 1095) was less than 0.06 µg/mL. Moreover, the “MIC S. pneumo. 1016” value in test [4] (Streptococcus pneumoniae 1016) was less than 0.06 µg/mL. Besides, the “MIC S. pyogenes 1079” value in test [5] (Streptococcus pyogenes 1079) was determined as 4 µg/mL (≈ 4.94 µM).

Regarding `CCC1OC(=O)C(C)C(=O)C(C)C(OC2OC(C)CC(N(C)C)C2O)C(C)(OC)CC(C)C(=O)C(C)C2N(CC3CCN(C(=O)c4cnc5ccccc5c4)C3)C(=O)OC12C` (stereo not shown) [11.17], the “MIC H. influenzae 1218” value in test [1] (H. influenzae 1218 (susceptible)) stood at 4 µg/mL (≈ 4.7 µM). In addition, the “MIC S. pneumo. 1175” value in test [2] (S. pneumoniae 1175 (mefA)) amounted to 2 µg/mL (≈ 2.35 µM). Also, the “MIC S. pneumo. 1095” value in test [3] (S. pneumoniae 1095 (ermB)) stood at 8 µg/mL (≈ 9.4 µM). Besides, in test [4] (S. pneumoniae 1016 (susceptible)), the “MIC S. pneumo. 1016” value was less than 0.06 µg/mL. In test [5] (S. pyogenes 1079 (ermB)), the “MIC S. pyogenes 1079” value is more than 64.00 µg/mL.

Source of the values: patent US7462600B2, “Macrolides” (Pfizer Inc, priority 2004, dated 2008).
